{"source": "patent US20230263822A1", "about": "“MODULATION OF FACTOR 11 EXPRESSION” (Ionis Pharmaceuticals, Inc., priority 2008, published 2023)", "key": {"mouse Factor 11 mRNA": {"tested_on": "mouse Factor 11 mRNA", "test": "Sense-oligonucleotide antidote: Factor 11 mRNA in liver (Example 23)", "assay_type": "in vivo, BALB/c mice", "settings": "for Percent inhibition of mouse Factor 11 mRNA compared to PBS control: antisense 40 mg/kg s.c. twice a week for three weeks, ISIS 418026 90 mg/kg single injection where given", "description": "(§1) The effect of the specific sense oligonucleotide to ISIS 404071 as an antidote was tested in BALB/c mice. In a first cohort, ISIS 404071 was administered subcutaneously to BALB/c mice twice a week for three weeks at a dose of 40 mg/kg. In a second cohort, ISIS 404057 was administered subcutaneously to BALB/c mice twice a week for three weeks at a dose of 40 mg/kg. The ISIS 404071 specific antidote, ISIS 418026 ([…]; complementary to ISIS 404071), incorporated herein as SEQ ID NO: 13, was administered to both cohorts subcutaneously in a single injection of 90 mg/kg 48 hours after the final treatment of ISIS 404071 or 404057. In a third cohort, ISIS 404071 was administered subcutaneously to BALB/c mice twice a week for three weeks at a dose of 40 mg/kg. Following the last treatment of ISIS 404071, mice were injected subcutaneously injected with PBS. In a fourth cohort, ISIS 404057 was administered subcutaneously to BALB/c mice twice a week for three weeks at a dose of 40 mg/kg. Following the last treatment of ISIS 404057, mice were injected subcutaneously injected with PBS. Following antidote administration, a set of 4 mice from each cohort were sacrificed at 12 hours, 1 day, 2 days, 3 days, 7 days, and 14 days. Whole liver was collected for RNA analysis and PPP was collected for aPTT analysis.\nRNA was extracted from liver tissue for real-time PCR analysis of Factor 11. Results are presented as percent inhibition of Factor 11, relative to PBS control."}, "blood coagulation [1]": {"tested_on": "blood coagulation", "test": "Sense-oligonucleotide antidote: aPTT (Example 23)", "assay_type": "in vivo, BALB/c mice", "settings": "ISIS 404071 40 mg/kg s.c. twice a week for three weeks, ISIS 418026 90 mg/kg where given", "description": "as §1"}, "blood coagulation [2]": {"tested_on": "blood coagulation", "test": "PT and aPTT, combination with Apixaban (Example 20)", "assay_type": "in vivo, BALB/c mice", "description": "PT and aPTT were measured using PPP from mice treated with ISIS 404071 in combination with Apixaban. In the first cohort, ISIS 404071 was administered subcutaneously to BALB/c mice at a dosage of 25 mg/kg twice a week for 3 weeks. Plasma was collected from these mice 5 days after receiving the last dose of ISIS 404071. In the second cohort, Apixaban was administered subcutaneously to BALB/c mice at a dosage of 6 mg/kg twice daily for three days. Plasma was collected from these mice 20 minutes after receiving the last dose of Apixaban. In the third cohort, ISIS 404071 was administered subcutaneously to BALB/c mice at a dosage of 20 mg/kg twice a week for 3 weeks, and Apixaban was administered subcutaneously at a dosage of 6 mg/kg twice daily on the last three days of ISIS 404071 treatment. Plasma was collected from these mice 20 minutes after receiving the last dose of Apixaban. In a fourth cohort, PBS was administered subcutaneously twice a week for three weeks, as a control. Plasma was collected 5 days after the last dose of PBS.\nPT and aPTT values provided in Table 32 are reported as International Normalized Ratio (INR) values. […] However, Apixaban and Apixaban combined with ISIS 404071 increased PT. Also shown in Table 32, Apixaban, ISIS 404071, and ISIS 404071 combined with Apixaban increase aPTT."}, "blood coagulation [3]": {"tested_on": "blood coagulation", "test": "Time course of aPTT after one dose (Example 29)", "assay_type": "in vivo, BALB/c mice", "settings": "for aPTT INR: values approximate", "description": "One dose of 50 mg/kg ISIS 404071 was administered subcutaneously to BALB/c mice. Following ISIS 404071 administration, mice were sacrificed at 12 hours, 1 day, 2 days, 3 days, 4 days, 7 days, 14 days, 28 days, and 56 days. Whole liver was collected for RNA analysis and PPP was collected for aPTT analysis. A control group of mice was treated with one subcutaneous dose of PBS.\naPTT values provided in Table 43 are reported as International Normalized Ratio (INR) values. INR values for aPTT were determined by dividing the aPTT value for ISIS 404071 treated mice by the aPTT for the PBS treated group. This ratio was then raised to the power of the International Sensitivity Index (ISI) of the tissue factor used."}, "blood coagulation [4]": {"tested_on": "blood coagulation", "test": "PT and aPTT assay in platelet poor plasma (Example 10)", "assay_type": "in vivo", "settings": "BALB/c mice", "description": "BALB/c mice were injected with 5 mg/kg, 10 mg/kg, 25 mg/kg, or 50 mg/kg of ISIS 404057 or ISIS 404071 twice a week for 3 weeks. A control group of mice was injected with phosphate buffered saline (PBS) twice a week for 3 weeks. Mice were sacrificed 5 days after receiving the last dose. Whole liver was harvested for RNA analysis and plasma was collected for clotting analysis (PT and aPTT) and protein analysis.\nProthrombin Time (PT) and Activated Partial Thromboplastin Time (aPTT) were measured using platelet poor plasma (PPP) from mice treated with ISIS 404057 and ISIS 404071. PT and aPTT values provided in Table 18 are reported as International Normalized Ratio (INR) values. INR values for PT and aPTT were determined by dividing the PT or aPTT value for each experimental group (i.e. 5 mg/kg, 10 mg/kg, 25 mg/kg, and 50 mg/kg treatment with ISIS 404057 or ISIS 404071) by the PT or aPTT for the PBS treated group. This ratio was then raised to the power of the International Sensitivity Index (ISI) of the tissue factor used."}, "[5]": {"settings": "BALB/c mice, ISIS 404071 25 or 20 mg/kg, Apixaban 6 mg/kg twice daily"}, "[6]": {"settings": "ISIS 404071 alone 25 mg/kg s.c. twice a week for 3 weeks, Apixaban alone 6 mg/kg s.c. twice daily for three days, combination 20 mg/kg + 6 mg/kg"}, "[7]": {"settings": "5 mg/kg twice a week for 3 weeks"}, "[8]": {"settings": "10 mg/kg twice a week for 3 weeks"}, "[9]": {"settings": "25 mg/kg twice a week for 3 weeks"}, "[10]": {"settings": "50 mg/kg twice a week for 3 weeks"}, "[11]": {"settings": "5-50 mg/kg twice a week for 3 weeks"}}}
{"substance": "ISIS 404071: antisense oligonucleotide targeted to murine Factor 11 mRNA, TGGTAATCCACTTTCAGAGG, target start site 869 (chemistry not given here)", "values": [{"measurement": "Percent inhibition of mouse Factor 11 mRNA compared to PBS control", "setting": "mouse Factor 11 mRNA; 12 hours after antidote/PBS", "result": 93, "unit": "%"}, {"measurement": "Percent inhibition of mouse Factor 11 mRNA compared to PBS control", "setting": "mouse Factor 11 mRNA; 1 day after antidote/PBS", "result": 90, "unit": "%"}, {"measurement": "Percent inhibition of mouse Factor 11 mRNA compared to PBS control", "setting": "mouse Factor 11 mRNA; 2 days after antidote/PBS", "result": 89, "unit": "%"}, {"measurement": "Percent inhibition of mouse Factor 11 mRNA compared to PBS control", "setting": "mouse Factor 11 mRNA; 3 days after antidote/PBS", "result": 88, "unit": "%"}, {"measurement": "Percent inhibition of mouse Factor 11 mRNA compared to PBS control", "setting": "mouse Factor 11 mRNA; 7 days after antidote/PBS", "result": 81, "unit": "%"}, {"measurement": "Percent inhibition of mouse Factor 11 mRNA compared to PBS control", "setting": "mouse Factor 11 mRNA; 14 days after antidote/PBS", "result": 67, "unit": "%"}, {"measurement": "inhibition of Factor 11 mRNA over the 14 day observation period", "setting": "mouse Factor 11 mRNA; BALB/c mice, ISIS 404071 40 mg/kg, with or without ISIS 418026 90 mg/kg", "result": "progressive decrease in inhibition"}, {"measurement": "aPTT INR", "setting": "blood coagulation [1]; 12 hours after antidote/PBS", "result": 1.51, "unit": "INR"}, {"measurement": "aPTT INR", "setting": "blood coagulation [1]; 1 day after antidote/PBS", "result": 1.30, "unit": "INR"}, {"measurement": "aPTT INR", "setting": "blood coagulation [1]; 2 day after antidote/PBS", "result": 1.35, "unit": "INR"}, {"measurement": "aPTT INR", "setting": "blood coagulation [1]; 3 day after antidote/PBS", "result": 1.27, "unit": "INR"}, {"measurement": "aPTT INR", "setting": "blood coagulation [1]; 7 day after antidote/PBS", "result": 1.18, "unit": "INR"}, {"measurement": "aPTT INR", "setting": "blood coagulation [1]; 14 day after antidote/PBS", "result": 1.05, "unit": "INR"}, {"measurement": "PT", "setting": "blood coagulation [2]; [5]", "result": "not significantly affected"}, {"measurement": "aPTT", "setting": "blood coagulation [2]; [5]", "result": "increase aPTT"}, {"measurement": "PT INR", "setting": "blood coagulation [2]; [6]", "result": 0.95, "unit": "INR"}, {"measurement": "aPTT INR", "setting": "blood coagulation [2]; [6]", "result": 1.31, "unit": "INR"}, {"measurement": "aPTT over time", "setting": "blood coagulation [3]; BALB/c mice, one s.c. dose of 50 mg/kg", "result": "progressive decrease of aPTT until day 4 and then progressive increase to pre-treatment levels from day 7 to day 28"}, {"measurement": "aPTT INR", "setting": "blood coagulation [3]; day 1 after one dose of 50 mg/kg s.c.", "result": "~1.02", "unit": "INR"}, {"measurement": "aPTT INR", "setting": "blood coagulation [3]; day 2 after one dose of 50 mg/kg s.c.", "result": "~1.12", "unit": "INR"}, {"measurement": "aPTT INR", "setting": "blood coagulation [3]; day 3 after one dose of 50 mg/kg s.c.", "result": "~1.29", "unit": "INR"}, {"measurement": "aPTT INR", "setting": "blood coagulation [3]; day 4 after one dose of 50 mg/kg s.c.", "result": "~1.30", "unit": "INR"}, {"measurement": "aPTT INR", "setting": "blood coagulation [3]; day 7 after one dose of 50 mg/kg s.c.", "result": "~1.25", "unit": "INR"}, {"measurement": "aPTT INR", "setting": "blood coagulation [3]; day 14 after one dose of 50 mg/kg s.c.", "result": "~1.11", "unit": "INR"}, {"measurement": "aPTT INR", "setting": "blood coagulation [3]; day 28 after one dose of 50 mg/kg s.c.", "result": "~1.02", "unit": "INR"}, {"measurement": "PT INR", "setting": "blood coagulation [4]; [7]", "result": 1.06}, {"measurement": "aPTT INR", "setting": "blood coagulation [4]; [7]", "result": 1.09}, {"measurement": "PT INR", "setting": "blood coagulation [4]; [8]", "result": 1.08}, {"measurement": "aPTT INR", "setting": "blood coagulation [4]; [8]", "result": 1.13}, {"measurement": "PT INR", "setting": "blood coagulation [4]; [9]", "result": 1.06}, {"measurement": "aPTT INR", "setting": "blood coagulation [4]; [9]", "result": 1.35}, {"measurement": "PT INR", "setting": "blood coagulation [4]; [10]", "result": 1.02}, {"measurement": "aPTT INR", "setting": "blood coagulation [4]; [10]", "result": 2.08}, {"measurement": "PT", "setting": "blood coagulation [4]; [11]", "result": "not significantly prolonged"}, {"measurement": "aPTT", "setting": "blood coagulation [4]; [11]", "result": "prolonged in a dose-dependent manner"}]}
